What was measured:
Assay type in all cases: cell-based
[1] = test system: SUM149PT 53BP1KO and SHLD2KO cells; experiment: Cell viability assay (CTG), 7 days, PARP inhibitor resistant models; conditions: less sensitive than parental
Method: Cells were seeded in 150 μl of media in 96-well plates or in 70 μl of media in 384-well plates pre-dosed with compounds (8–10 points dose response) with a D300e digital dispenser (Tecan) and incubated for 24 h at 37°C and 5% CO2. Cell proliferation at the end of the assay (7 days) was measured using CTG (Promega, G9243). CTG luminescence was normalized to vehicle treated control for each cell line, and data were fitted with a nonlinear regression curve (four parameters) to generate compound sensitivity curves and determine IC50 or EC50 (half maximal inhibitory/effective concentration) values as indicated.

[2] = test system: SUM149PT 53BP1KO and SHLD2KO cells; experiment: Combination viability assay (CTG, Bliss synergy); conditions: SUM149PT with 53BP1 or SHLD2 genetically ablated, 7 days
Method: (§1) For combination analysis, cells were seeded in 70 μl of media in 384-well plates pre-dosed with compounds (5-point dose–response matrix) with a D300e digital dispenser (Tecan). Cell proliferation was determined after 7 days using CTG. Analysis was performed with Genedata Screener (Compound Synergy Extension) to determine Synergy scores (Bliss model), using a formulation whereby the Blissexcess is a continuous value and values higher than 2 are usually considered synergistic, and values between 0 and 2 are usually considered additive.

DLD-1 WT cells = experiment: Combination viability assay (CTG, Bliss synergy); conditions: 7 days
Method: as §1

RD-ES cells = experiment: Combination viability assay (CTG, Bliss synergy); conditions: 7 days
DLD-1 BRCA2KO cells = experiment: Combination viability assay (CTG, Bliss synergy); conditions: 7 days
Method: For combination analysis, cells were seeded in 70 μl of media in 384-well plates pre-dosed with compounds (5-point dose–response matrix) with a D300e digital dispenser (Tecan). Cell proliferation was determined after 7 days using CTG.

[3] = test system: HCT-116, NCI-H460, SUM149PT, MDA-MB-436 cells; experiment: Combination viability assay (CTG, Bliss synergy); conditions: HRP (HCT-116, NCI-H460) and HRD (SUM149PT, MDA-MB-436) cells, 7 days
Method: as §1

## Cn1ncnc1[C@H]1c2n[nH]c(=O)c3cc(F)cc(c23)N[C@@H]1c1ccc(F)cc1 [talazoparib, reference compound]
[1]
  Change in sensitivity of SUM149PT 53BP1KO and SHLD2KO cells versus parental cells: ~20 fold
[2]
  Combination effect with MSC778: synergized

## PDD00017273
DLD-1 WT cells
  Combination effect with MSC778: Synergistic
RD-ES cells
  Combination effect with MSC778: limited to additivity

## Cn1cncc1-c1c(F)cncc1NC(=O)c1c(N)nn2cc(F)cnc12 [Tuvusertib]
DLD-1 BRCA2KO cells
  Combination effect with MSC778: at best weakly additive

## NC(=O)c1cccc2cn(-c3ccc([C@@H]4CCCNC4)cc3)nc12 [niraparib]
RD-ES cells
  Combination effect with MSC778: combination benefit

## O=C(c1cc(Cc2n[nH]c(=O)c3ccccc23)ccc1F)N1CCN(C(=O)C2CC2)CC1 [olaparib]
[2]
  Combination effect with MSC778: synergized
RD-ES cells
  Combination effect with MSC778: combination benefit

## Cc1nc(C)c(Cn2c(=O)n(-c3ncns3)c3cc(S(=O)(=O)NC4(C)CC4)ccc32)s1 [PDD00017238]
DLD-1 WT cells
  Combination effect with MSC778: Synergistic
[3]
  Combination benefit with MSC778: particularly strong

## C[C@]1(c2nc3c(C(N)=O)cccc3[nH]2)CCCN1 [veliparib]
RD-ES cells
  Combination effect with MSC778: combination benefit

## COc1ncnc(C2CC2)c1-c1ncc2cnn(Cc3ccc(-c4nc(C(F)(F)F)cn4C(C)C)cc3)c2n1 [KSQ-4279]
[3]
  Combination benefit with MSC778: particularly strong
